Several values for one entry are separate records, joined by “and”; a condition that tells them apart may be missing. Equal entries are not always repeated. Entries after “also recorded” stand apart in the source; their conditions may differ. Structures can show the parent of a compound that is named as a salt. Where two headings read alike, the source gives them in different places.
Columns and labels:
κ [1] = target: T1, κ (Cavia porcellus, UniProt P41144); experiment: Binding to κ sites, competition with [3H]U69593, guinea pig brain membranes; conditions: geometric mean of three replicates
T1 construct: Guinea Pig Brain Membranes; from tissue; host or cells: guinea pig brain membranes
Experimental: (§1) The opioid receptor affinities of the target compounds were determined on guinea pig membranes employing a modification of the method of Werling et al., J. Pharmacol. Exp. Ther., 233, 722 (1986).

δ1 [2] = target: T2, δ1 (Cavia porcellus, UniProt A0A286XTF2); experiment: biochemical; format: binding, guinea pig
T2 construct: Guinea Pig Brain Membranes; from tissue; host or cells: guinea pig brain membranes
Experimental: as §1

δ1 [3] = experiment: biochemical; format: binding, guinea pig; conditions: for preference between δ1 and δ2 putative binding sites (in words): [3H]DPDPE vs [3H]DSLET
Experimental: as §1

δ2 [4] = experiment: biochemical; format: binding, guinea pig; conditions: DSLET vs DPDPE
Experimental: as §1

μ = target: T3, μ (Mus musculus, UniProt P42866); experiment: Tail-flick assay, antagonism of morphine (μ) antinociception; format: in vivo, male Swiss-Webster mice; conditions: for ED50 Ratio (95% C.L.): ED50 with antagonist/control ED50, morphine s.c., antagonist 20 pmol/kg i.c.v.
T3 construct: male Swiss-Webster mice; from tissue; host or cells: living mouse (male Swiss-Webster)

κ [5] = target: T4, κ (Mus musculus, UniProt P33534); format: in vivo, male Swiss-Webster mice; conditions: for ED50 Ratio (95% C.L.): mouse, in vivo
T4 construct: male Swiss-Webster mice; from tissue; host or cells: living mouse (male Swiss-Webster)

δ2 [6] = target: T5, δ2 (Mus musculus, UniProt P32300); experiment: Tail-flick assay, antagonism of DSLET (δ2) antinociception; format: in vivo, male Swiss-Webster mice; conditions: for ED50 Ratio (95% C.L.): ED50 with antagonist/control ED50, DSLET i.c.v., antagonist 20 pmol/kg i.c.v.
T5 construct: male Swiss-Webster mice; from tissue; host or cells: living mouse (male Swiss-Webster)

δ1 [7] = target: δ1 (Mus musculus, UniProt P32300); conditions: for ED50 Ratio (95% C.L.): ED50 with antagonist/control ED50, DPDPE i.c.v.; for antagonist potency, central vs peripheral delivery (in words): central (i.c.v.) vs peripheral (i.v.); for Dose required to double the ED50 of DPDPE, i.c.v. / Dose required to double the ED50 of DPDPE, i.v.: antagonist dose/(ED50 ratio - 1); for antagonism of DPDPE antinociception (in words): i.v. or i.c.v., mice
δ opioid receptors = δ opioid receptors (Mus musculus, UniProt P32300); experiment: Antagonism of DADLE (δ) in electrically stimulated mouse vas deferens (MVD) preparation; conditions: for Kb: Ke (nM); for IC50 ratio DADLE(δ): 15 min preincubation
μ opioid receptor = μ opioid receptor (Cavia porcellus, UniProt A0ACM8Q262); conditions: GPI, morphine, antagonist 100 nM
κ opioid receptor = κ opioid receptor (Cavia porcellus, UniProt P41144); conditions: GPI, ethylketazocine, antagonist 100 nM
δ2 [8] = target: T6, δ2 (Cavia porcellus, UniProt A0A286XTF2); experiment: biochemical; format: binding, guinea pig
T6 construct: Guinea Pig Brain Membranes; from tissue; host or cells: guinea pig brain membranes
Experimental: as §1

δ2 [9] = conditions: Jiang et al.; Korlipara et al.; cited from earlier work
[10] = compared with 2 or 3; cited from earlier work
rats = conditions: compared to peptidyl delta-opioid receptor antagonists; Ser. No. 07/750,109; cited from earlier work
[11] = MVD, DADLE, Ke = [antagonist]/(IC50 ratio - 1), antagonist 100 nM
[12] = MVD DADLE IC50 ratio / GPI EK IC50 ratio
[13] = MVD DADLE IC50 ratio / GPI morphine IC50 ratio
[14] = using calculated IC50 ratio (238) based on 100 nM of 7

Compound | Ki Selectivity Ratio δ1/δ2 (δ1 [3]) | Kb (δ opioid receptors; [11]) | IC50 Selectivity Ratio δ/κ (δ opioid receptors; [12]) | IC50 Selectivity Ratio δ/μ (δ opioid receptors; [13]) | IC50 ratio DADLE(δ) (δ opioid receptors; MVD, antagonist 100 nM) | IC50 ratio M(μ) (μ opioid receptor) | IC50 ratio EK (κ) (κ opioid receptor) | Ki (δ1 [2]) [nM] | Ki Selectivity Ratio κ/δ1 (δ1 [3]) | Ki Selectivity Ratio μ/δ1 (δ1 [3]) | Ki (δ2 [8]) [nM] | other results
O=C(O)CNC(=O)c1cccc2c3c([nH]c12)[C@@H]1Oc2c(O)ccc4c2[C@@]12CCN(CC1CC1)[C@H](C4)[C@]2(O)C3 [Compound 2, 7'-(Carboxamidoglycine)-17-(cyclopropylmethyl)-6,7-dehydro-3,14-dihydroxy-4,5α-epoxy-6,7,2',3'-indolomorphinan hydrochloride] | 8.2 | 3.2 nM and 1 to 5 nM | 30 | 21 | 32 ± 8 | 1.5 ± 0.1 | 1.1 ± 0.2 |  |  |  |  | Ki (κ [1]): 162 nM; affinity for δ1 sites relative to NTI (times greater) (δ1 [2]): 2 times; preference between δ1 and δ2 putative binding sites (in words) (δ1 [3]): greater affinity for δ2 relative to δ1 putative binding sites; factor by which compound competed more effectively with [3H]DSLET than with [3H]DPDPE for δ sites (δ2 [4]): 8-10; ED50 Ratio (95% C.L.) (μ): 0.9 (0.8-1.1); antagonism of morphine antinociception (in words) (μ; mice): No significant antagonism; antagonism of U50488 antinociception (in words) (κ [5]; mice): No significant antagonism; ED50 Ratio (95% C.L.) (κ [5]): 0.8 (0.7-0.9); ED50 Ratio (95% C.L.) (δ2 [6]): 1.1 (0.8-1.6); antagonism of DSLET antinociception (in words) (δ2 [6]; mice): No significant antagonism; ED50 Ratio (95% C.L.) (δ1 [7]; antagonist 20 pmol/kg i.c.v.): 5.3 (3.6-7.7); ED50 Ratio (95% C.L.) (δ1 [7]; antagonist 0.9 μmol/kg i.v.): 2.7 (1.9-4.0); antagonist potency, central vs peripheral delivery (in words) (δ1 [7]): highly potent δ opioid antagonists when administered centrally, and many orders of magnitude less potent when delivered by the peripheral route; Dose required to double the ED50 of DPDPE, i.c.v. (δ1 [7]): 4.7 pmol/kg; antagonism of DPDPE antinociception (in words) (δ1 [7]): effectively antagonized the antinociceptive effect of the δ1 agonist, DPDPE; Dose required to double the ED50 of DPDPE, i.v. (δ1 [7]): 0.53 µmol/kg; in vivo δ subtype selectivity (in words) (δ1 [7]; mouse, in vivo): antagonized the δ1 agonist, DPDPE, but not the δ2 agonist, DSLET; i.v./i.c.v. dose ratio relative to that of NTI (times greater) (δ1 [7]): 15
O=C(O)C[C@H](NC(=O)c1cccc2c3c([nH]c12)[C@@H]1Oc2c(O)ccc4c2[C@@]12CCN(CC1CC1)[C@H](C4)[C@]2(O)C3)C(=O)O [Compound 3, 7'-(Carboxamido-L-aspartate)-17-(cyclopropylmethyl)-6,7-dehydro-3,14-dihydroxy-4,5α-epoxy-6,7,2',3'-indolomorphinan hydrochloride] | 0.3 | 1.1 nM and 1 to 5 nM | 43 | 67 | 89 ± 20 | 1.3 ± 0.5 | 2.1 ± 0.6 | 0.14 | 6246 | 2574 | 0.41 | preference between δ1 and δ2 putative binding sites (in words) (δ1 [3]; hydrochloride): modest preference for [^3 H]DPDPE sites; also recorded: modest preference for δ1 over δ2 sites; ED50 Ratio (95% C.L.) (μ): 1.0 (0.7-1.5); ED50 Ratio (95% C.L.) (κ [5]): 0.7 (0.4-1.2); ED50 Ratio (95% C.L.) (δ2 [6]): 0.5 (0.3-1.1); ED50 Ratio (95% C.L.) (δ1 [7]; antagonist 0.8 μmol/kg i.v.): 2.3 (1.7-3.1); ED50 Ratio (95% C.L.) (δ1 [7]; antagonist 20 omol/kg (i.c.v.) as printed): 2.6 (2.0-3.6); antagonist potency, central vs peripheral delivery (in words) (δ1 [7]): highly potent δ opioid antagonists when administered centrally, and many orders of magnitude less potent when delivered by the peripheral route; Dose required to double the ED50 of DPDPE, i.c.v. (δ1 [7]): 12.5 pmol/kg; antagonism of DPDPE antinociception (in words) (δ1 [7]): selectively antagonized DPDPE; Dose required to double the ED50 of DPDPE, i.v. (δ1 [7]): 0.62 µmol/kg; in vivo δ subtype selectivity (in words) (δ1 [7]; mouse, in vivo): antagonized the δ1 agonist, DPDPE, but not the δ2 agonist, DSLET; Ratio (i.v./i.c.v.) of doses required to produce equivalent antagonism of DPDPE-induced antinociception (δ1 [7]; mouse, in vivo, hydrochloride): 49,600 and > 49,000; i.v./i.c.v. dose ratio relative to that of NTI (times greater) (δ1 [7]): 7
NCCC[C@H](NC(=O)c1cccc2c3c([nH]c12)[C@@H]1Oc2c(O)ccc4c2[C@@]12CCN(CC1CC1)[C@H](C4)[C@]2(O)C3)C(=O)O [Compound 4, 7'-(Carboxamido L-ornithine)-17-(cyclopropylmethyl)-6,7-dehydro-3,14-dihydroxy-4,5α-epoxy-6,7,2',3'-indolomorphinan hydrochloride] | 11.3 | 1.8 nM and 1 to 5 nM | 63 | 20 | 58 ± 15 | 3.0 ± 1 | 0.9 ± 0.0 | 0.18 | 320 | 756 | 0.015 | preference between δ1 and δ2 putative binding sites (in words) (δ1 [3]): greater affinity for δ2 relative to δ1 putative binding sites; factor by which compound competed more effectively with [3H]DSLET than with [3H]DPDPE for δ sites (δ2 [4]): 8-10
N=C(N)NCCC[C@H](NC(=O)c1cccc2c3c([nH]c12)[C@@H]1Oc2c(O)ccc4c2[C@@]12CCN(CC1CC1)[C@H](C4)[C@]2(O)C3)C(=O)O [Compound 5, 7'-(Carboxamido-L-arginine)-17-(cyclopropylmethyl)-6,7-dehydro-3,14-dihydroxy-4,5α-epoxy-6,7,2',3'-indolomorphinan hydrochloride] | 1.9 | 3.3 nM and 1 to 5 nM | 27 | 24 | 31 ± 5 | 1.3 ± 0.6 | 1.2 ± 0.5 | 0.16 | 1181 | 2096 | 0.083 | 
NCCCC[C@H](NC(=O)c1cccc2c3c([nH]c12)[C@@H]1Oc2c(O)ccc4c2[C@@]12CCN(CC1CC1)[C@H](C4)[C@]2(O)C3)C(=O)O [Compound 6, 7'-(N(α)-Carboxamido-L-lysine)-17-(cyclopropylmethyl)-6,7-dehydro-3,14dihydroxy-4,5α-epoxy-6,7,2',3'-indolomorphinan hydrochloride] | 0.4 | 5.2 nM and 1 to 5 nM | 20 | 20 | 20 ± 4 | 1.0 ± 0.4 | 1.1 ± 0.0 | 0.3 | 134 | 719 | 0.75 | preference between δ1 and δ2 putative binding sites (in words) (δ1 [3]; hydrochloride): modest preference for [^3 H]DPDPE sites; also recorded: modest preference for δ1 over δ2 sites
O=C(O)c1cccc2c3c([nH]c12)[C@@H]1Oc2c(O)ccc4c2[C@@]12CCN(CC1CC1)[C@H](C4)[C@]2(O)C3 [Compound 7, 7'-Carboxy-17-(cyclopropylmethyl)-6,7-dehydro-3,14-dihydroxy-4,5α-epoxy-6,7,2',3'-indolomorphinan hydrochloride] | 0.8 |  |  |  |  | 2.0 ± 0.3 | 1.0 ± 0.2 | 0.013 | 3246 | 1846 | 0.016 | Ki (κ [1]): 42 nM; affinity for δ1 sites relative to NTI (times greater) (δ1 [2]): 6 times; affinity for δ sites (in words) (δ1 [2]; δ1 and δ2 sites, guinea pig membranes): high affinity for δ sites; δ opioid receptor antagonist potency (in words) (δ opioid receptors): δ antagonist potency approaching that of NTI; Kb (δ opioid receptors; MVD, DADLE, concentration of 7 was 10 nM): 0.4 nM; calculated IC50 ratio based on 100 nM of 7 (δ opioid receptors; MVD, DADLE, calculated for 100 nM): 238; IC50 Selectivity Ratio δ/κ (δ opioid receptors; [14]): 231; IC50 Selectivity Ratio δ/μ (δ opioid receptors; [14]): 122
Oc1ccc2c3c1OC1c4c(c5ccccc5n4Cc4ccccc4)CC4(O)C(C2)N(CC2CC2)CCC314 (stereo not drawn) [benzylnaltrindole] |  |  |  |  |  |  |  |  |  |  |  | in vivo δ subtype selectivity (in words) (δ2 [9]): δ2 -selective antagonists; lipophilicity (in words) [10]: considerably more lipophilic than 2 or 3
Oc1ccc2c3c1O[C@H]1c4oc5ccccc5c4C[C@@]4(O)[C@@H](C2)N(CC2CC2)CC[C@]314 [naltriben (NTB), naltriben] |  |  |  |  |  |  |  |  |  |  |  | suppression of ethanol drinking (in words) (rats): unexpectedly prolonged suppression of ethanol drinking; in vivo δ subtype selectivity (in words) (δ2 [9]): δ2 -selective antagonists; lipophilicity (in words) [10]: considerably more lipophilic than 2 or 3

From patent publication US5578725A, “Delta opioid receptor antagonists” (priority 1995, dated 1996)
